Results reported in US12145915B1 (priority 2023, dated 2024).
Values after ≈ are worked out from the molar mass of the structure shown.

Key:
[1] = system: Mycobacterium tuberculosis H37Rv (ATCC: 25177); test: Resazurin Microplate Assay (REMA), MIC against H37Rv strain; assay type: cell-based; details: 192 h, read-out: Anti-tubercular activity against Mycobacterium tuberculosis (μg/mL) H37Rv (MIC)

Row | SMILES | melting point [°C] | MIC [1] [µg/mL]
1 | Cc1nc(-c2ccc(OCC(C)C)c(C#N)c2)sc1C(=O)N/N=C/c1ccc([N+](=O)[O-])o1 | 228 to 230 | –
2 | Cc1nc(-c2ccc(OCC(C)C)c(C#N)c2)sc1C(=O)N/N=C/c1ccc(F)c(Oc2ccccc2)c1 [KNV-TZL1, (E)-2-(3-Cyano-4-isobutoxyphenyl)-N-(4-fluoro-3-phenoxybenzylidene)-4-methylthiazole-5-carbohydrazide] | 138 to 140 | 8 (≈ 15.1 µM)
3 | COc1cc(/C=N/NC(=O)c2sc(-c3ccc(OCC(C)C)c(C#N)c3)nc2C)ccc1O [KNV-TZL2, (E)-2-(3-Cyano-4-isobutoxyphenyl)-N-(4-hydroxy-3-methoxybenzylidene)-4-methylthiazole-5-carbohydrazide] | 230 to 232 | 16 (≈ 34.4 µM)
